From patent publication US20260200937A1, “EXATECAN HYD[…] USE THEREOF” (HANGZHOU ADCORIS BIOPHARMA CO., LTD, priority 2023, published 2026)
Read-outs that look alike come from different tables or passages of the source.

Key:
Assay type in all cases: cell-based
[1] = system: NCI-H1975: human lung cancer cells; test: Tumor cell growth inhibition (CCK-8, 72 h), NCI-H1975; conditions: 72 h incubation, read-out: IC50 for inhibiting the growth of tumor cells, NCI-H1975
Procedure: (§1) • OE33: human esophageal cancer cells; • SK-BR-3: human breast cancer cells; • NCI-N87: human gastric cancer cells; • NCI-H1975: human lung cancer cells; • MDA-MB-231: human breast cancer cells; • NCI-H226: human lung squamous cell carcinoma cells; • TE12: human esophageal cancer cells.
(§2) Tumor cells OE33, SK-BR-3, NCI-N87, NCI-H1975, MDA-MB-231, NCI-H226, and TE12 were cultured separately in RPMI1640 (Cellmax) supplemented with 10% fetal bovine serum (Cellmax). Tumor cells in the exponential growth phase were diluted to a concentration of 1×10^5 cells/mL with culture medium and added to 96-well cell culture plates at 100 μL per well, then returned and incubated overnight in a 37° C. incubator with 5% CO2. On the following day, the compounds were diluted to concentrations of 10000 nM, 2000 nM, 400 nM, 80 nM, 16 nM, 3.2 nM, 0.64 nM, and 0.13 nM with culture medium, and the diluted compounds were added to the 96-well cell culture plates at 2 μL per well, with three replicate wells for each concentration. Negative control and blank control groups without addition of compounds were added with 2 μL of the dilution liquid per well. After the addition of the compounds, the plates were returned to the 37° C. incubator with 5% CO2 to continue the incubation for 72 h. After the incubation, the cell culture plates were removed, and the culture medium in the plates was aspirated using a pipette. Then, 100 μL of culture medium containing 10% CCK-8 was added to each well, and the plates were incubated at 37° C. for 3 h. After the incubation, the plates were removed, kept in the dark, and placed in an […]. Absorbance was measured at 630 nm as the reference wavelength and 450 nm as the test wavelength. Based on the absorbance values, the IC50 values (Table 1) were calculated using the four-parameter logistic regression method in GraphPad.

[2] = system: NCI-N87: human gastric cancer cells; test: Tumor cell growth inhibition (CCK-8, 72 h), NCI-N87; conditions: 72 h incubation, read-out: IC50 for inhibiting the growth of tumor cells, NCI-N87
Procedure: as §1, §2

[3] = system: SK-BR-3: human breast cancer cells; test: Tumor cell growth inhibition (CCK-8, 72 h), SK-BR-3; conditions: SK-BR-3 cells, 72 h incubation, read-out: IC50 for inhibiting the growth of tumor cells, SK-BR-3
Procedure: as §1, §2

[4] = system: OE33: human esophageal cancer cells; test: Tumor cell growth inhibition (CCK-8, 72 h), OE33; conditions: 72 h incubation, read-out: IC50 for inhibiting the growth of tumor cells, OE33
Procedure: as §1, §2

[5] = system: NCI-H226: human lung squamous cell carcinoma cells; test: Tumor cell growth inhibition (CCK-8, 72 h), NCI-H226; conditions: 72 h incubation, read-out: IC50 for inhibiting the growth of tumor cells, NCI-H226
Procedure: as §1, §2

[6] = system: TE12: human esophageal cancer cells; test: Tumor cell growth inhibition (CCK-8, 72 h), TE12; conditions: 72 h incubation, read-out: IC50 for inhibiting the growth of tumor cells, TE12
Procedure: as §1, §2

[7] = system: MDA-MB-231: human breast cancer cells; test: Tumor cell growth inhibition (CCK-8, 72 h), MDA-MB-231; conditions: MDA-MB-231 cells, 72 h incubation, read-out: IC50 for inhibiting the growth of tumor cells, MDA-MB-231
Procedure: as §1, §2

[2H]C([2H])([2H])NOCC(=O)N[C@H]1CCc2c(C)c(F)cc3nc4c(c1c23)Cn1c-4cc2c(c1=O)COC(=O)[C@]2(O)CC [Compound D1, N-(2′-O—(N-trideuteriomethylamino)oxyacetyl)exatecan]
IC50 ([1]; Homo sapiens): 65 nM
IC50 ([2]; Homo sapiens): 2.44 nM
IC50 ([3]; Homo sapiens): 2.59 nM
IC50 ([4]; Homo sapiens): 4.32 nM
IC50 ([5]; Homo sapiens): 22.8 nM
IC50 ([6]; Homo sapiens): 36.7 nM
IC50 ([7]; Homo sapiens): 183 nM

CC[C@@]1(O)C(=O)OCc2c1cc1n(c2=O)Cc2c-1nc1cc(F)c(C)c3c1c2[C@@H](NC(=O)C1(ONC)CCC1)CC3 [Compound D2, N-(1′-O—(N-methylamino)oxycyclobutane-1′-carbonyl)exatecan]
IC50 ([1]; Homo sapiens): 26.7 nM
IC50 ([2]; Homo sapiens): 1.11 nM
IC50 ([3]; Homo sapiens): 2.62 nM
IC50 ([4]; Homo sapiens): 1.95 nM
IC50 ([5]; Homo sapiens): 6.35 nM
IC50 ([6]; Homo sapiens): 13.6 nM
IC50 ([7]; Homo sapiens): 236 nM

CC[C@@]1(O)C(=O)OCc2c1cc1n(c2=O)Cc2c-1nc1cc(F)c(C)c3c1c2[C@@H](NC(=O)[C@H](C)ONC)CC3 [Compound D3, N-(2′-methyl-2′-O—(N-methylamino)oxyacetyl)exatecan]
IC50 ([1]; Homo sapiens): 36.9 nM
IC50 ([2]; Homo sapiens): 1.69 nM
IC50 ([3]; Homo sapiens): 4.84 nM
IC50 ([4]; Homo sapiens): 3.8 nM
IC50 ([5]; Homo sapiens): 7.65 nM
IC50 ([6]; Homo sapiens): 18.5 nM
IC50 ([7]; Homo sapiens): 237 nM

[2H]C([2H])([2H])NOC([2H])([2H])C(=O)N[C@H]1CCc2c(C)c(F)cc3nc4c(c1c23)Cn1c-4cc2c(c1=O)COC(=O)[C@]2(O)CC [Compound D4, N-(2′,2′-dideuterio-2′-O—(N-trideuteriomethylamino)oxyacetyl)exatecan]
IC50 ([1]; Homo sapiens): 64.4 nM
IC50 ([2]; Homo sapiens): 3.68 nM
IC50 ([3]; Homo sapiens): 4.48 nM
IC50 ([4]; Homo sapiens): 5.56 nM
IC50 ([5]; Homo sapiens): 20.8 nM
IC50 ([6]; Homo sapiens): 33.1 nM
IC50 ([7]; Homo sapiens): 425 nM

CC[C@@]1(O)C(=O)OCc2c1cc1n(c2=O)Cc2c-1nc1cc(F)c(C)c3c1c2[C@@H](NC(=O)C1CNOC1)CC3 (stereo partly drawn) [Compound D5, N-(isoxazolidine-4′-carbonyl)exatecan]
IC50 ([1]; Homo sapiens): 97.4 nM
IC50 ([2]; Homo sapiens): 6.84 nM
IC50 ([3]; Homo sapiens): 15.4 nM
IC50 ([4]; Homo sapiens): 22.5 nM
IC50 ([5]; Homo sapiens): 49.7 nM
IC50 ([6]; Homo sapiens): 94.9 nM
IC50 ([7]; Homo sapiens): 351 nM

CC[C@@]1(O)C(=O)OCc2c1cc1n(c2=O)Cc2c-1nc1cc(F)c(C)c3c1c2[C@@H](NC(=O)CO)CC3 [Dxd, reference compound]
IC50 [1]: 25.7 nM
IC50 [2]: 2.48 nM
IC50 [3]: 9.69 nM
IC50 [4]: 7.01 nM
IC50 [5]: 75.1 nM
IC50 [6]: 21.5 nM
IC50 [7]: 320 nM
